From patent US10316017B2, “COT modulators and methods of use thereof” (Gilead Sciences, Inc., priority 2015, dated 2019)
pEC50, pIC50: −log10 of the molar value. Like-named read-outs stand apart in the source and are kept apart here.

Columns and labels:
[1] = test system: TNFα production in LPS-stimulated human monocytes; test: Cot Monocyte TNFα Cell Based Assay; details: Homo sapiens, Monocyte, read-out: EC50 TNF
In short: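 TNFα release quantified by two-antibody TR-FRET, normalised to unstimulated (0%) and LPS-stimulated (100%) wells. Cells got a 1 h compound exposure at 37° C in 0.5% DMSO before 4 h challenge with 50 pg/ml LPS, at 5,000 cells/well.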

[2] = molecular target: T1, human Cot catalytic domain (30-397 amino acids) (Homo sapiens, UniProt P41279); test: High Throughput Cot Biochemical Assay (KinEASE TR-FRET); details: read-out: IC50 HTRF
T1 construct: Purified recombinant human Cot catalytic domain (30-397 amino acids) was purchased from Cama Biosciences; purchased Cama Biosciences (so in the source)
In short: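 TR-FRET (KinEASE) read-out: Eu-labelled phospho-specific antibody binds XL665-tagged STK3 peptide (1 μM) phosphorylated by 5 nM human Cot kinase domain (residues 30-397). Reaction at 400 μM ATP, pH 7.0 MOPS buffer with 10 mM MgOAc, 1 mM DTT and 0.1% DMSO.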

[3] = TNFα in LPS-stimulated human monocytes
[4] = Cot KinEASE TR-FRET (HTRF) biochemical assay, 400 μM ATP
[5] = Cot biochemical HTRF (KinEASE TR-FRET) assay
[6] = LPS-stimulated human monocytes, TNFα TR-FRET
[7] = Cot KinEASE TR-FRET, 400 μM ATP

T1 sequence (P41279 30-397): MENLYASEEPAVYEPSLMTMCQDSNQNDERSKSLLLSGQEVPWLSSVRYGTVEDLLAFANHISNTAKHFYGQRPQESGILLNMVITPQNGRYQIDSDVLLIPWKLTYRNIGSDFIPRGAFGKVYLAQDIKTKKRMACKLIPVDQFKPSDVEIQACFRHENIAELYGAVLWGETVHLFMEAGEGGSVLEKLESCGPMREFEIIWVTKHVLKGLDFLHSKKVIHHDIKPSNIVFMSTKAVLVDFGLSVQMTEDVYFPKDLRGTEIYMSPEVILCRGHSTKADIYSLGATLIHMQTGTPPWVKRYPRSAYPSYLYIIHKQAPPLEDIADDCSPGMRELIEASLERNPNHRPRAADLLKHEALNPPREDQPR

pEC50 [1, 3]	pIC50 [2, 4]	pIC50 [2, 5]	pEC50 [1, 6]	pIC50 [2, 7]	Structure (SMILES)
5.90		7.15			CC(C)(C)N1CCC(n2cc([C@@H](Nc3cc(Cl)c4ncc(C#N)c(NC5CCOCC5)c4c3)c3ccc(Cl)cc3)nn2)CC1 [Example 662, (S)-6-(((1-(1-(tert-butyl)piperidin-4-yl)-1H-1,2,3-triazol-4-yl)(4-chlorophenyl)methyl)amino)-8-chloro-4-((tetrahydro-2H-pyran-4-yl)amino)quinoline-3-carbonitrile]
			7.51	8.40	Cc1c(C#N)cccc1[C@H](Nc1cc(Cl)c2ncc(C#N)c(NCC(C)(C)C)c2c1)c1cn(C23CC(C2)C3)nn1 [Example 1108, (S)-6-(((1-(bicyclo[1.1.1]pentan-1-yl)-1H-1,2,3-triazol-4-yl)(3-cyano-2-methylphenyl)methyl)amino)-8-chloro-4-(neopentylamino) quinoline-3-carbonitrile]
5.52		7.11			CC(C)(C)N1CCC(n2cc([C@@H](Nc3cc(Cl)c4ncc(C#N)c(NCC5CCCCC5)c4c3)c3ccccc3)nn2)CC1 [Example 602, (S)-6-(((1-(1-(tert-butyl)piperidin-4-yl)-1H-1,2,3-triazol-4-yl)(phenyl)methyl)amino)-8-chloro-4-chloro-4-((cyclohexylmethyl)amino) quinoline-3-carbonitrile]
6.37		8.00			N#Cc1cnc2c(Cl)cc(N[C@@H](c3cccc(CN4CCCC4)c3)c3c[nH]nn3)cc2c1Nc1ccc(F)c(Cl)c1 [Example 575, (S)-8-chloro-4-((3-chloro-4-fluorophenyl)amino)-6-(((3-(pyrrolidin-1-ylmethyl)phenyl) (1H-1,2,3-triazol-4-yl)methyl)amino)quinoline-3-carbonitrile]
6.43		7.29			CC(C)(C)N1CCC(n2cc([C@@H](Nc3cc(Cl)c4ncc(C#N)c(Nc5ccsc5Cl)c4c3)c3ccccc3)nn2)CC1 [Example 611, (S)-6-(((1-(1-(tert-butyl)piperidin-4-yl)-1H-1,2,3-triazol-4-yl)(phenyl)methyl)amino)-8-chloro-4-((2-chlorothiophen-3-yl)amino)quinoline-3-carbonitrile]
6.05		8.22			CC(C)(C)N1CCC(n2cc([C@@H](Nc3cc(Cl)c4ncc(C#N)c(Nc5ccc(F)c(Cl)c5)c4c3)c3cccc(CN4CCOCC4)c3)nn2)CC1 [Example 733, (S)-6-(((1-(1-(tert-butyl)piperidin-4-yl)-1H-1,2,3-triazol-4-yl)(3-(morpholinomethyl)phenyl)methyl)amino)-8-chloro-4-((3-chloro-4-fluorophenyl)amino)quinoline-3-carbonitrile]
			7.16	8.70	Cc1c(-c2ccncc2)cccc1[C@H](Nc1cc(C#N)c2ncc(C#N)c(NCC(C)(C)C)c2c1)c1cn(C2(C(F)F)CC2)nn1 [Example 1141, (S)-6-(((1-(1-(difluoromethyl)cyclopropyl)-1H-1,2,3-triazol-4-yl)(2-methyl-3-(pyridin-4-yl)phenyl)methyl)amino)-4-(neopentylamino)quinoline-3,8-dicarbonitrile]
6.91		8.52			COC(=O)c1cccc([C@H](Nc2cc(Cl)c3ncc(C#N)c(Nc4ccc(F)c(Cl)c4)c3c2)c2cn(C3CCN(C(C)(C)C)CC3)nn2)c1 [Example 728, methyl (S)-3-((1-(1-(tert-butyl)piperidin-4-yl)-1H-1,2,3-triazol-4-yl)((8-chloro-4-((3-chloro-4-fluorophenyl)amino)-3-cyanoquinolin-6-yl)amino)methyl)benzoate]
6.00		7.25			Cn1cnc(C(Nc2cc(Cl)c3ncc(C#N)c(Nc4ccc(F)c(Cl)c4)c3c2)c2ccccc2)c1 (stereo not shown) [Example 895, 8-chloro-4-((3-chloro-4-fluorophenyl)amino)-6-(((1-methyl-1H-imidazol-4-yl)(phenyl)methyl)amino) quinoline-3-carbonitrile]
			6.46	7.66	CC(C)(C)CNc1c(C#N)cnc2c(F)cc(N[C@H](c3cn(C(F)(F)C(N)=O)nn3)c3ccccc3Cl)cc12 [Example 1001, (S)-2-(4-((2-chlorophenyl)((3-cyano-8-fluoro-4-(neopentylamino)quinolin-6-yl)amino)methyl)-1H-1,2,3-triazol-1-yl)-2,2-difluoroacetamide]
7.40		9.00			CC(C)(C)N1CCC(n2cc([C@@H](Nc3cc(Cl)c4ncc(C#N)c(Nc5ccc(F)c(Cl)c5)c4c3)c3cccc(N4CCCCC4=O)c3)nn2)CC1 [Example 548, (S)-6-(((1-(1-(tert-butyl)piperidin-4-yl)-1H-1,2,3-triazol-4-yl)(3-(2-oxopiperidin-1-yl)phenyl)methyl)amino)-8-chloro-4-((3-chloro-4-fluorophenyl)amino)quinoline-3-carbonitrile]

Further lines, the compound ahead of its results:

Structure (SMILES)	pEC50 [1, 3]	pIC50 [2, 4]	pIC50 [2, 5]	pEC50 [1, 6]	pIC50 [2, 7]
[2H][C@@](Nc1cc(Cl)c2ncc(C#N)c(NCC(C)(C)C)c2c1)(c1cn(C2CC2)nn1)c1ccccc1C(F)F [Example 238, (S)-8-chloro-6-(((1-cyclopropyl-1H-1,2,3-triazol-4-yl)(2-(difluoromethyl)phenyl)methyl-d)amino)-4-(neopentylamino)quinoline-3-carbonitrile]	6.79	7.92			
N#Cc1cnc2c(Cl)cc(N[C@@H](c3ccccc3)c3cn(CC4(N5CCCC5)COC4)nn3)cc2c1Nc1ccc(F)c(Cl)c1 [Example 544]	5.92		7.03		
[2H][C@](Nc1cc(Cl)c2ncc(C#N)c(NCC(C)(C)C)c2c1)(c1cn(CC#N)nn1)c1ccccc1Cl [Example 119, 8-chloro-6-(((2-chlorophenyl)(1-(cyanomethyl)-1H-1,2,3-triazol-4-yl)methyl-d)amino)-4-(neopentylamino) quinoline-3-carbonitrile]	6.78	7.59			
CC[C@@H](Nc1c(C#N)cnc2c(Cl)cc(N[C@@H](c3ccc(F)cc3)c3c[nH]nn3)c(F)c12)c1ccccc1 [Example 297]	5.37	< 5.00			
CC(C)n1cc([C@@H](Nc2cc(Cl)c3ncc(C#N)c(Nc4ccc(F)c(Cl)c4)c3c2)c2cccc(N3CCCCC3=O)c2)nn1 [Example 547, (S)-8-chloro-4-((3-chloro-4-fluorophenyl)amino)-6-(((1-isopropyl-1H-1,2,3-triazol-4-yl) (3-(2-oxopiperidin-1-yl)phenyl)methyl)amino) quinoline-3-carbonitrile]	6.29		8.70		
N#Cc1cccc([C@H](Nc2cc(Cl)c3ncc(C#N)c(Nc4cnc(F)c(F)c4)c3c2)c2c[nH]nn2)c1 [Example 424, (S)-8-chloro-6-(((3-cyanophenyl)(1H-1,2,3-triazol-4-yl)methyl)amino)-4-((5,6-difluoropyridin-3-yl)amino)quinoline-3-carbonitrile]	6.38		8.22		
[2H][C@](Nc1cc(C#N)c2ncc(C#N)c(N[C@H](CC)c3ccccc3)c2c1)(c1cccc(C#N)c1)c1cn(C2CC2)nn1 [Example 243, 6-(((S)-(3-cyanophenyl)(1-cyclopropyl-1H-1,2,3-triazol-4-yl)methyl-d)amino)-4-(((R)-1-phenylpropyl)amino)quinoline-3,8-dicarbonitrile]	7.39	8.70			
[2H][C@](Nc1cc(Cl)c2ncc(C#N)c(N[C@@H]3C[C@H]3C(F)(F)F)c2c1)(c1ccc(F)cc1)c1cn(C2CC2)nn1 [Example 154, 8-chloro-6-(((S)-(1-cyclopropyl-1H-1,2,3-triazol-4-yl)(4-fluorophenyl)methyl-d)amino)-4-(((1R,2R)-2-(trifluoromethyl)cyclopropyl)amino)quinoline-3-carbonitrile]	6.24	7.41			
[2H][C@](Nc1cc(Cl)c2ncc(C#N)c(N[C@H](CCC#N)c3ccccc3)c2c1)(c1ccc(F)cc1)c1cn(C2CC2)nn1 [Example 249, 8-chloro-4-(((R)-3-cyano-1-phenylpropyl)amino)-6-(((S)-(1-cyclopropyl-1H-1,2,3-triazol-4-yl)(4-fluorophenyl)methyl-d)amino)quinoline-3-carbonitrile]	7.68	9.00			
[2H][C@@](Nc1cc(C#N)c2ncc(C#N)c(NCC(C)(C)C)c2c1)(c1cn(C2(C(F)(F)F)CC2)nn1)c1ccccc1Cl [Example 129, (S)-6-(((2-chlorophenyl) (1-(1-(trifluoromethyl)cyclopropyl)-1H-1,2,3-triazol-4-yl)methyl-d)amino)-4-(neopentylamino) quinoline-3,8-dicarbonitrile]	6.46	7.70			
CC(C)(C)N1CCC(n2cc([C@@H](Nc3cc(Cl)c4ncc(C#N)c(Nc5ccc(F)c(Cl)c5)c4c3)c3cccc(CO)c3)nn2)CC1 [Compound 17, (S)-6-(((1-(1-(tert-butyl)piperidin-4-yl)-1H-1,2,3-triazol-4-yl)(3-(hydroxymethyl)phenyl)methyl)amino)-8-chloro-4-((3-chloro-4-fluorophenyl)amino) quinoline-3-carbonitrile]	6.59	8.40			
CC(C)(C)CNc1c(C#N)cnc2c(Br)cc(N[C@@H](c3cccc(C(N)=O)c3)c3cn(C4CC4)nn3)cc12 [Example 54, (S)-3-(((8-bromo-3-cyano-4-(neopentylamino)quinolin-6-yl)amino) (1-cyclopropyl-1H-1,2,3-triazol-4-yl)methyl)benzamide]	6.57	8.70			
